Test results taken from patent US8759334B2, “Compounds useful for the treatment of metabolic and inflammatory diseases” (Galapagos NV, priority 2011, dated 2014).
pIC50: −log10 of the molar value.

Columns and labels:
GPR43 [1] = target: T1, GPR43 (Homo sapiens, UniProt O15552); assay: Calcium mobilization assay with probenecid; format: cell-based; conditions: GPR43 stably expressing cells; triggered with sodium acetate at EC80; 2.5 mM probenecid; read-out: GPR43 assay with probenicid IC50
T1 construct: expressed in transfected cells
T1 sequence (O15552 1-330): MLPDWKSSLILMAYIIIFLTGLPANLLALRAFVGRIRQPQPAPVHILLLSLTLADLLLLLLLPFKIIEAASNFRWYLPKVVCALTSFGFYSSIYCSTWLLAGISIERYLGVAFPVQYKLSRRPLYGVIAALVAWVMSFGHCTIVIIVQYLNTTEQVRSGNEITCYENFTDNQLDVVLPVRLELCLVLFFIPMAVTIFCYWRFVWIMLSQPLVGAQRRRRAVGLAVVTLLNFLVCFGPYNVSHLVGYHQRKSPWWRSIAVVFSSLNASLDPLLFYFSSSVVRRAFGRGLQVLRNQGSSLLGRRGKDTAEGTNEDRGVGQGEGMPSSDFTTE
Method in brief: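 […] being added at rising concentrations to a GPR43 stable line. Before this, cells were dye-loaded (Calcium 4 with 2.5 mM probenecid) for 2 h at 37 °C after overnight plating.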

GPR43 [2] = target: T1, GPR43; assay: Calcium mobilization assay without probenecid; format: cell-based; conditions: GPR43 stably expressing cells, triggered with sodium acetate at EC80, read-out: GPR43 assay without probenicid IC50
Procedure: The following assay can be used for determination of GPR43 activation. The assay measures intracellular calcium release induced by activation of GPR43. On day 1, GPR43 stably expressing cells were detached with mild trypsinization (Trypsin, 0.25% with EDTA 4Na, 5× diluted in PBS) centrifuged at 1000 rpm for 5 min and resuspended at 6.000 cells/25 μL medium (DMEM supplemented with 10% FBS, 10 μg/mL puromycin and 1% Pen/Strep). The cells were distributed in poly-D-lysine coated 384 well plates (black with clear bottom, 25 μL/well) and incubated overnight at 37° C. 10% CO2. On day 2, 25 μL of a fluorescent Ca^2+ indicator (Calcium 4 assay; Molecular Devices) was added on top of the cells and incubated for 2 h at 37° C. Subsequently, compounds at increasing concentration (10 μL/well) were added to the plate and incubated for 15 min at 37° C. Finally the cells were triggered with sodium acetate at EC80 concentration (concentration which gives 80% of the activity of the GPR43) and the Ca-flux was measured simultaneously to the trigger injection on a fluorescence plate reader (FlexStation3), this measures the antagonist activity of the compounds. To measure agonist activity of the compounds, compound was added to the well and the Ca-flux was measured simultaneously to the injection of compound.

## Cc1cc(C)cc(CC(=O)N2CCC2(C)C(=O)N(C)Cc2ccc(OC(F)(F)F)cc2)c1 (stereo not drawn) [Compound 37, 1-[2-(3,5-Dimethyl-phenyl)-acetyl]-2-methyl-azetidine-2-carboxylic acid methyl-(4-trifluoromethoxy-benzyl)-amide]
GPR43 [1]
  pIC50: < 6.00
GPR43 [2]
  pIC50: 6.00 to 6.30

## Cc1cc(C)cc(CC(=O)N2CCC2(C)C(=O)N(C)Cc2ccc(C)cc2C)c1 (stereo not drawn) [Compound 33, 1-[2-(3,5-Dimethyl-phenyl)-acetyl]-2-methyl-azetidine-2-carboxylic acid (2,4-dimethyl-benzyl)-methyl-amide]
GPR43 [1]
  pIC50: < 6.00
GPR43 [2]
  pIC50: 6.00 to 6.30

## COC(=O)CN(Cc1cccc(Cl)c1)C(=O)C1(C)CCN1C(=O)Cc1csc2ccccc12 (stereo not drawn) [Compound 60, [[1-(2-Benzo[b]thiophen-3-yl-acetyl)-2-methyl-azetidine-2-carbonyl]-(3-chloro-benzyl)-amino]acetic acid methyl ester]
GPR43 [1]
  pIC50: 6.00 to 6.30
GPR43 [2]
  pIC50: < 6.00

## CC1(C(=O)Nc2ccc(Cl)cc2)CCN1C(=O)Cc1ccc(Cl)cc1Cl (stereo not drawn) [Compound 4, 1-[2-(2,4-Dichloro-phenyl)-acetyl]-2-methyl-azetidine-2-carboxylic acid (4-chloro-phenyl)-amide]
GPR43 [1]
  pIC50: < 6.00
GPR43 [2]
  pIC50: < 6.00

## CN(Cc1ccc(Cl)cc1)C(=O)C1(C)CCN1C(=O)Cc1ccc(-c2ccc(F)cc2)cc1 (stereo not drawn) [Compound 15, 1-[2-(4′-Fluoro-biphenyl-4-yl)-acetyl]-2-methyl-azetidine-2-carboxylic acid (4-chloro-benzyl)-methyl-amide]
GPR43 [1]
  pIC50: < 6.00
GPR43 [2]
  pIC50: < 6.00

## CC1(C(=O)N(CC#N)Cc2ccc(Cl)cc2)CCN1C(=O)Cc1csc2ccccc12 (stereo not drawn) [Compound 84, 1-(2-Benzo[b]thiophen-3-yl-acetyl)-2-methyl-azetidine-2-carboxylic acid (4-chloro-benzyl)-cyanomethyl-amide]
GPR43 [1]
  pIC50: 6.30 to 7.00
GPR43 [2]
  pIC50: 6.30 to 7.00

## CN(Cc1ccc(Cl)cc1)C(=O)C1(C)CCN1C(=O)Cc1cccc(-c2cccc(Cl)c2)c1 (stereo not drawn) [Compound 29, 1-[2-(3′-Chloro-biphenyl-3-yl)-acetyl]-2-methyl-azetidine-2-carboxylic acid (4-chloro-benzyl)-methyl-amide]
GPR43 [1]
  pIC50: < 6.00
GPR43 [2]
  pIC50: < 6.00

## CN(Cc1ccc(Cl)cc1)C(=O)C1(C)CCN1C(=O)Cc1ccc(F)c(F)c1 (stereo not drawn) [Compound 12, 1-[2-(3,4-Difluoro-phenyl)-acetyl]-2-methyl-azetidine-2-carboxylic acid (4-chloro-benzyl)-methyl-amide]
GPR43 [1]
  pIC50: < 6.00
GPR43 [2]
  pIC50: < 6.00

## CN(Cc1ccc(Cl)cc1)C(=O)C1(C)CCN1C(=O)Cc1ccc(Cl)cc1 (stereo not drawn) [Compound 11]
GPR43 [1]
  pIC50: < 6.00
GPR43 [2]
  pIC50: < 6.00

## COC(=O)CCCN(Cc1ccc(Cl)cc1)C(=O)C1(C)CCN1C(=O)Cc1cc(C)cc(C)c1 (stereo not drawn) [Compound 63, 4-((4-Chloro-benzyl)-{1-[2-(3,5-dimethyl-phenyl)-acetyl]-2-methyl-azetidine-2-carbonyl}-amino)-butyric acid methyl ester]
GPR43 [1]
  pIC50: 6.30 to 7.00
GPR43 [2]
  pIC50: 6.30 to 7.00

## CN(Cc1ccc(C(F)(F)F)cc1)C(=O)C1(C)CCN1C(=O)Cc1ccc(Cl)cc1Cl (stereo not drawn) [Compound 45, 1-[2-(2,4-Dichloro-phenyl)-acetyl]-2-methyl-azetidine-2-carboxylic acid methyl-(4-trifluoromethyl-benzyl)-amide]
GPR43 [1]
  pIC50: < 6.00
GPR43 [2]
  pIC50: < 6.00

## CN(Cc1ccc(Cl)cc1)C(=O)C1(C)CCN1C(=O)Cc1cn(C)c2ccccc12 (stereo not drawn) [Compound 91, 2-Methyl-1-[2-(1-methyl-1H-indol-3-yl)-acetyl]-azetidine-2-carboxylic acid (4-chloro-benzyl)-methyl-amide]
GPR43 [1]
  pIC50: < 6.00
GPR43 [2]
  pIC50: < 6.00

## Cc1c(C(=O)N2CCC2(C)C(=O)N(C)Cc2ccc(Cl)cc2)oc2ccccc12 (stereo not drawn) [Compound 50, N-(4-chlorobenzyl)-N,2-dimethyl-1-(3-methylbenzofuran-2-carbonyl)azetidine-2-carboxamide]
GPR43 [1]
  pIC50: < 6.00
GPR43 [2]
  pIC50: < 6.00

## Cc1cc(C)cc(CC(=O)N2CCC2(C)C(=O)N(Cc2ccc(Cl)cc2)CC(C)O)c1 (stereo not drawn) [Compound 72, 1-[2-(3,5-Dimethyl-phenyl)-acetyl]-2-methyl-azetidine-2-carboxylic acid (4-chloro-benzyl)-(2-hydroxy-propyl)-amide]
GPR43 [1]
  pIC50: 6.30 to 7.00
GPR43 [2]
  pIC50: 6.00 to 6.30

## Cc1cc(C)cc(CC(=O)N2CCC2(C)C(=O)N(CC(N)=O)Cc2ccc(Cl)cc2)c1 (stereo not drawn) [Compound 75, 1-[2-(3,5-Dimethyl-phenyl)-acetyl]-2-methyl-azetidine-2-carboxylic acid carbamoylmethyl-(4-chloro-benzyl)-amide]
GPR43 [1]
  pIC50: 6.30 to 7.00
GPR43 [2]
  pIC50: 6.30 to 7.00

## CNC(=O)CN(Cc1ccc(Cl)cc1)C(=O)C1(C)CCN1C(=O)Cc1cc(C)cc(C)c1 (stereo not drawn) [Compound 53, 1-[2-(3,5-Dimethyl-phenyl)-acetyl]-2-methyl-azetidine-2-carboxylic acid (4-chloro-benzyl)-methylcarbamoylmethyl-amide]
GPR43 [1]
  pIC50: 6.30 to 7.00
GPR43 [2]
  pIC50: 6.30 to 7.00

## CC1(C(=O)N(CCCc2nnn[nH]2)Cc2ccc(Cl)cc2)CCN1C(=O)Cc1csc2ccccc12 (stereo not drawn) [Compound 100, 1-(2-Benzo[b]thiophen-3-yl-acetyl)-2-methyl-azetidine-2-carboxylic acid (4-chloro-benzyl)-[3-(1H-tetrazol-5-yl)-propyl]-amide]
GPR43 [1]
  pIC50: 7.00 to 11.00
GPR43 [2]
  pIC50: 7.00 to 11.00

## O=C(O)CN(Cc1ccc(Cl)cc1)C(=O)C1(CO)CCN1C(=O)Cc1csc2ccccc12 (stereo not drawn) [Compound 85, [[1-(2-Benzo[b]thiophen-3-yl-acetyl)-2-hydroxymethyl-azetidine-2-carbonyl]-(4-chloro-benzyl)-amino]-acetic acid]
GPR43 [1]
  pIC50: 6.30 to 7.00
GPR43 [2]
  pIC50: < 6.00

## Cc1ccc(CN(C)C(=O)C2(C)CCN2C(=O)Cc2cc(C)cc(C)c2)cc1 (stereo not drawn) [Compound 6, 1-[2-(3,5-Dimethyl-phenyl)-acetyl]-2-methyl-azetidine-2-carboxylic acid methyl-(4-methyl-benzyl)-amide]
GPR43 [1]
  pIC50: < 6.00
GPR43 [2]
  pIC50: 6.00 to 6.30

## CC1(C(=O)NCc2ccc(Cl)cc2)CCN1C(=O)C1(c2ccc(Cl)cc2Cl)CC1 (stereo not drawn) [Compound 52, N-(4-chlorobenzyl)-1-(1-(2,4-dichlorophenyl)cyclopropanecarbonyl)-2-methylazetidine-2-carboxamide]
GPR43 [1]
  pIC50: < 6.00
GPR43 [2]
  pIC50: < 6.00

## Cc1ccc(CNC(=O)C2(C)CCN2C(=O)Cc2ccc(Cl)cc2Cl)cc1 (stereo not drawn) [Compound 43, 1-[2-(2,4-Dichloro-phenyl)-acetyl]-2-methyl-azetidine-2-carboxylic acid 4-methyl-benzylamide]
GPR43 [1]
  pIC50: < 6.00
GPR43 [2]
  pIC50: < 6.00

## Cc1cc(C)cc(CC(=O)N2CCC2(C)C(=O)N(CCNS(C)(=O)=O)Cc2ccc(Cl)cc2)c1 (stereo not drawn) [Compound 102, 1-[2-(3,5-Dimethyl-phenyl)-acetyl]-2-methyl-azetidine-2-carboxylic acid (4-chloro-benzyl)-(2-methanesulfonylamino-ethyl)-amide]
GPR43 [1]
  pIC50: 6.30 to 7.00
GPR43 [2]
  pIC50: 6.00 to 6.30

## Cc1cc(C)cc(CC(=O)N2CCC2(C)C(=O)N(C)Cc2cccc(Cl)c2)c1 (stereo not drawn) [Compound 5, 1-[2-(3,5-Dimethyl-phenyl)-acetyl]-2-methyl-azetidine-2-carboxylic acid (3-chloro-benzyl)-methyl-amide]
GPR43 [1]
  pIC50: < 6.00
GPR43 [2]
  pIC50: < 6.00

## Cc1cc(C)cc(CC(=O)N2CCC2(C)C(=O)N(Cc2ccc(Cl)cc2)[C@H](C)C(=O)O)c1 (stereo partly drawn) [Compound 74, (R)-2-((4-Chloro-benzyl)-{1-[2-(3,5-dimethyl-phenyl)-acetyl]-2-methyl-azetidine-2-carbonyl}-amino)-propionic acid]
GPR43 [1]
  pIC50: < 6.00
GPR43 [2]
  pIC50: < 6.00

## CN(Cc1ccc(Cl)cc1)C(=O)C1(C)CCN1C(=O)Cc1cccc(Cl)c1 (stereo not drawn) [Compound 10, 1-[2-(3-Chloro-phenyl)-acetyl]-2-methyl-azetidine-2-carboxylic acid (4-chloro-benzyl)-methyl-amide]
GPR43 [1]
  pIC50: < 6.00
GPR43 [2]
  pIC50: < 6.00

## CN(Cc1ccc(Cl)cc1)C(=O)C1(C)CCN1C(=O)Cc1ccc(-c2cccc(C#N)c2)cc1 (stereo not drawn) [Compound 22, 1-[2-(3′-Cyano-biphenyl-4-yl)-acetyl]-2-methyl-azetidine-2-carboxylic acid (4-chloro-benzyl)-methyl-amide]
GPR43 [1]
  pIC50: < 6.00
GPR43 [2]
  pIC50: < 6.00

## CN(Cc1ccc(Cl)cc1)C(=O)C1(C)CCN1C(=O)Cc1ccc(-c2ccccc2)cc1 (stereo not drawn) [Compound 20, 1-(2-Biphenyl-4-yl-acetyl)-2-methyl-azetidine-2-carboxylic acid (4-chloro-benzyl)-methyl-amide]
GPR43 [1]
  pIC50: < 6.00
GPR43 [2]
  pIC50: < 6.00
